The CheMixHub viscosity set

Assay: xn = mol fraction of the nth substance listed

c1ccccc1 + CCO
Conditions | viscosity [mPa·s]
293.15 K, 101 kPa, x1 = 0.16 | 1.017
293.15 K, 101 kPa, x1 = 0.37 | 0.81
293.15 K, 101 kPa, x1 = 0.64 | 0.657
298.15 K, 101 kPa, x1 = 0.1259 | 0.916
298.15 K, 101 kPa, x1 = 0.16 | 0.926
298.15 K, 101 kPa, x1 = 0.2547 | 0.805
298.15 K, 101 kPa, x1 = 0.37 | 0.759
298.15 K, 101 kPa, x1 = 0.4079 | 0.708
298.15 K, 101 kPa, x1 = 0.554 | 0.643
298.15 K, 101 kPa, x1 = 0.64 | 0.624
298.15 K, 101 kPa, x1 = 0.676 | 0.611
298.15 K, 101 kPa, x1 = 0.779 | 0.583
298.15 K, 101 kPa, x1 = 0.842 | 0.584
298.15 K, 101 kPa, x1 = 0.91 | 0.587
298.15 K, 101.33 kPa, x1 = 0.0518 | 1.013
298.15 K, 101.33 kPa, x1 = 0.1059 | 0.959
298.15 K, 101.33 kPa, x1 = 0.1078 | 0.955
298.15 K, 101.33 kPa, x1 = 0.1897 | 0.88
298.15 K, 101.33 kPa, x1 = 0.1934 | 0.884
298.15 K, 101.33 kPa, x1 = 0.2966 | 0.794
298.15 K, 101.33 kPa, x1 = 0.3308 | 0.776
298.15 K, 101.33 kPa, x1 = 0.3795 | 0.728
298.15 K, 101.33 kPa, x1 = 0.3983 | 0.731
298.15 K, 101.33 kPa, x1 = 0.4887 | 0.681
298.15 K, 101.33 kPa, x1 = 0.5514 | 0.651
298.15 K, 101.33 kPa, x1 = 0.5729 | 0.647
298.15 K, 101.33 kPa, x1 = 0.5993 | 0.638
298.15 K, 101.33 kPa, x1 = 0.6579 | 0.607
298.15 K, 101.33 kPa, x1 = 0.6973 | 0.61
298.15 K, 101.33 kPa, x1 = 0.7073 | 0.588
298.15 K, 101.33 kPa, x1 = 0.7987 | 0.59
298.15 K, 101.33 kPa, x1 = 0.8126 | 0.567
298.15 K, 101.33 kPa, x1 = 0.8995 | 0.582
298.15 K, 101.33 kPa, x2 = 0.0192 | 0.567
298.15 K, 101.33 kPa, x2 = 0.113 | 0.645
298.15 K, 101.33 kPa, x2 = 0.2 | 0.597
298.15 K, 101.33 kPa, x2 = 0.306 | 0.642
298.15 K, 101.33 kPa, x2 = 0.5 | 0.712
298.15 K, 101.33 kPa, x2 = 0.692 | 0.816
298.15 K, 101.33 kPa, x2 = 0.892 | 0.977
298.16 K, 101 kPa, x2 = 0.1 | 0.583
298.16 K, 101 kPa, x2 = 0.2 | 0.587
298.16 K, 101 kPa, x2 = 0.3 | 0.605
298.16 K, 101 kPa, x2 = 0.4 | 0.635
298.16 K, 101 kPa, x2 = 0.5 | 0.675
298.16 K, 101 kPa, x2 = 0.6 | 0.723
298.16 K, 101 kPa, x2 = 0.7 | 0.782
298.16 K, 101 kPa, x2 = 0.8 | 0.861
298.16 K, 101 kPa, x2 = 0.9 | 0.959
303 K, 100 kPa, x2 = 0.4 | 0.596
303.15 K, 101 kPa, x1 = 0.1259 | 0.841
303.15 K, 101 kPa, x1 = 0.16 | 0.839
303.15 K, 101 kPa, x1 = 0.2547 | 0.737
303.15 K, 101 kPa, x1 = 0.37 | 0.681
303.15 K, 101 kPa, x1 = 0.4079 | 0.65
303.15 K, 101 kPa, x1 = 0.554 | 0.593
303.15 K, 101 kPa, x1 = 0.64 | 0.571
303.15 K, 101 kPa, x1 = 0.676 | 0.564
303.15 K, 101 kPa, x1 = 0.779 | 0.544
303.15 K, 101 kPa, x1 = 0.842 | 0.546
303.15 K, 101 kPa, x1 = 0.91 | 0.547
308 K, 100 kPa, x2 = 0.4 | 0.551
308.15 K, 101 kPa, x1 = 0.1259 | 0.769
308.15 K, 101 kPa, x1 = 0.16 | 0.772
308.15 K, 101 kPa, x1 = 0.2547 | 0.675
308.15 K, 101 kPa, x1 = 0.37 | 0.623
308.15 K, 101 kPa, x1 = 0.4079 | 0.598
308.15 K, 101 kPa, x1 = 0.554 | 0.548
308.15 K, 101 kPa, x1 = 0.64 | 0.538
308.15 K, 101 kPa, x1 = 0.676 | 0.526
308.15 K, 101 kPa, x1 = 0.779 | 0.511
308.15 K, 101 kPa, x1 = 0.842 | 0.511
308.15 K, 101 kPa, x1 = 0.91 | 0.51
313 K, 100 kPa, x2 = 0.4 | 0.528
313.15 K, 101 kPa, x1 = 0.1259 | 0.705
313.15 K, 101 kPa, x1 = 0.16 | 0.699
313.15 K, 101 kPa, x1 = 0.2547 | 0.622
313.15 K, 101 kPa, x1 = 0.37 | 0.567
313.15 K, 101 kPa, x1 = 0.4079 | 0.553
313.15 K, 101 kPa, x1 = 0.5 | 0.5326
313.15 K, 101 kPa, x1 = 0.554 | 0.51
313.15 K, 101 kPa, x1 = 0.64 | 0.5
313.15 K, 101 kPa, x1 = 0.676 | 0.488
313.15 K, 101 kPa, x1 = 0.7 | 0.4812
313.15 K, 101 kPa, x1 = 0.779 | 0.478
313.15 K, 101 kPa, x1 = 0.842 | 0.481
313.15 K, 101 kPa, x1 = 0.91 | 0.479
313.15 K, 101.33 kPa, x2 = 0.113 | 0.525
313.15 K, 101.33 kPa, x2 = 0.306 | 0.515
313.15 K, 101.33 kPa, x2 = 0.5 | 0.555
313.15 K, 101.33 kPa, x2 = 0.692 | 0.629
313.15 K, 101.33 kPa, x2 = 0.892 | 0.748
318 K, 100 kPa, x2 = 0.4 | 0.477
318.15 K, 101 kPa, x1 = 0.1259 | 0.646
318.15 K, 101 kPa, x1 = 0.2547 | 0.573
318.15 K, 101 kPa, x1 = 0.4079 | 0.514
318.15 K, 101 kPa, x1 = 0.554 | 0.475
318.15 K, 101 kPa, x1 = 0.676 | 0.458
318.15 K, 101 kPa, x1 = 0.779 | 0.447
318.15 K, 101 kPa, x1 = 0.842 | 0.451
318.15 K, 101 kPa, x1 = 0.91 | 0.451
323.15 K, 101.33 kPa, x2 = 0.2 | 0.424
